Columns and labels:
LDL [1] = experiment: Copper ion (CuSO4)-induced LDL oxidation; format: biochemical, human; settings: for inhibition of LDL oxidation measured by the TBARS assay, CuSO4 system: 10 μM compound, 10 μM CuSO4, 4 hours at 37° C., LDL 100 μg of protein/mL; for LDL-associated peroxides content, CuSO4 system: control LDL 710±51
LDL [2] = experiment: AAPH (free radical generator)-induced LDL oxidation; format: biochemical, human; settings: for inhibition of LDL oxidation measured by the TBARS assay, AAPH system: 10 μM compound, 5 mM AAPH, 4 hours at 37° C.; for LDL-associated peroxides content, AAPH system: control LDL 990±89
[3] = tested on: HDL-associated paraoxonase; experiment: HDL-associated paraoxonase activity after CuSO4-induced HDL oxidation; format: biochemical, human; settings: for protection of HDL-associated paraoxonase: HDL oxidized with CuSO4, versus HDL oxidized without drug; for Paraoxonase Specific Activity: after CuSO4-induced HDL oxidation, before incubation 50±3
Excerpt: . One unit of paraoxonase activity produces 1 nmol of p-nitrophenol per minute.

[4] = Free radical scavenging capacity (DPPH assay); settings: 20 μM; after 300 seconds of incubation
Method: Free radical scavenging capacity—The free radical scavenging capacities of the drugs were analyzed by the 1,1-diphenyl-2-picryl-hydrazyl (DPPH) assay. Each drug (20 μM) was mixed with 3 mL of 0.1 nmol DPPH/1 (in ethanol). The time course of the change in the optical density at 517 nm was then kinetically monitored.

[5] = Method: For the lipid peroxidation experiments, 500 μL of membrane vesicles were enriched with dilinoleoyl phosphatidylcholine (DLPC) at a concentration of 1.0 mg DLPC/mL. […] The extent of lipid peroxidation in each sample was determined by a spectrophotometric assay for lipid peroxides in serum lipoproteins using a color reagent known as CHOD-iodide (Merck, Darmstadt, FRG, Merck Cat. No. 14106). The color reagent has the following composition:
The concentration of triiodide formed was measured spectrophotometrically according to the formula (L=lipoprotein) [formula]
To each of the withdrawn aliquots of membrane vesicles was added 1.0 mL of the CHOD color reagent, and the sample was incubated in the absence of light for 4 hours. […] Lipid peroxide formation was measured in triplicate and values were expressed as mean±SD. The significance of differences between results from different experimental conditions was tested using the two-tailed student t-test.

LDL [6] = experiment: LDL oxidation in all oxidative systems studied (CuSO4, AAPH, J-774A.1 macrophages), summary statements; format: biochemical, human; settings: for inhibition of LDL oxidation in all oxidative systems studied (in words): CuSO4, AAPH and J-774A.1 macrophage systems; for inhibition of lipid peroxidation induced by copper ions, AAPH or J-774A.1 macrophages: pharmacological concentrations, summary over systems
[7] = tested on: J-774 A.1 murine macrophages-like cell line; settings: 10 μM compound; J-774 A.1 cells, 2 μM CuSO4, 20 hours
Method: The macrophages were grown in Dulbecco's Modified Eagles Medium (DMEM) supplemented with 5% heat inactivated fetal calf serum (FCS). For the lipoprotein oxidation studies, cells (1×10^6/35 mm dish) were incubated with LDL (100 μg of protein/mL) in RPMI medium (without phenol red) in the presence of 2 μM CuSO4 for 20 hours at 37° C. in the incubator. Control LDL was also incubated in a cell-free system under the same conditions. At the end of the incubation period, the extent of LDL oxidation was measured in the medium (after centrifugation at 1000×g for 10 minutes) by the TBARS assay. Cell-mediated oxidation of LDL was calculated by subtracting the values obtained in the cell-free system from those obtained with the cells.

VLDL [8] = experiment: AAPH-induced VLDL oxidation; settings: for inhibition of VLDL oxidation (TBARS), AAPH oxidative system: 10 μM compound, 4 hours at 37° C.; for VLDL-associated peroxide content, AAPH system: control VLDL 2169±329
HDL = experiment: CuSO4-induced HDL oxidation; settings: for inhibition of HDL oxidation in the presence of CuSO4: 10 μM CuSO4; for CuSO4-Induced HDL Oxidation, MDA / CuSO4-Induced HDL Oxidation, Peroxides: 10 μM drug, 10 μM CuSO4, 4 hours at 37° C.; for CuSO4-Induced HDL Oxidation, MDA: Control 9.1 ± 0.1; for CuSO4-Induced HDL Oxidation, Peroxides: Control 122 ± 14
VLDL [9] = experiment: Copper ion (CuSO4)-induced VLDL oxidation; settings: for inhibition of VLDL oxidation (TBARS), copper ion oxidative system: 10 μM compound, 4 hours at 37° C.; for VLDL-associated peroxide content, CuSO4 system: control VLDL 1818±333
VLDL [10] = experiment: Lipoprotein electrophoresis of VLDL after copper ion-induced oxidation; format: biochemical, human; settings: 10 μM CuSO4
Method: Lipoprotein electrophoresis—Lipoproteins (100 μg protein/mL) were incubated without or with the drugs followed by oxidation in the presence of 10 μM CuSO4. Then, electrophoresis of the lipoproteins was performed on 1% agarose using a Hydragel-Lipo kit (Sebia, France).

Compound	inhibition of LDL oxidation measured by the TBARS assay, CuSO4 system (LDL [1]) [%]	LDL-associated peroxides content, CuSO4 system (LDL [1]) [nmol/mg LDL protein]	inhibition of LDL oxidation measured by the TBARS assay, AAPH system (LDL [2]) [%]	LDL-associated peroxides content, AAPH system (LDL [2]) [nmol/mg LDL protein]	protection of HDL-associated paraoxonase [3]	Paraoxonase Specific Activity ([3]; Table 1, Control 26 ± 2) [nmoL/mg HDL Protein/min]	reduction in the absorbance at 517 nm (DPPH assay) [4]	inhibition of LDL oxidation in all oxidative systems studied (in words) (LDL [6])	inhibition of LDL oxidation measured by the TBARS assay, macrophage system [7] [%]	inhibition of VLDL oxidation (TBARS), AAPH oxidative system (VLDL [8])	VLDL-associated peroxide content, AAPH system (VLDL [8]) [nmol VLDL protein]	inhibition of HDL oxidation in the presence of CuSO4 (HDL)	CuSO4-Induced HDL Oxidation, MDA (HDL; Table 1) [nmoL/mg HDL Protein]	CuSO4-Induced HDL Oxidation, Peroxides (HDL; Table 1) [nmoL/mg HDL Protein]	inhibition of VLDL oxidation (TBARS), copper ion oxidative system (VLDL [9])	VLDL-associated peroxide content, CuSO4 system (VLDL [9]) [nmol/mg VLDL protein]	inhibition of lipid peroxidation induced by copper ions, AAPH or J-774A.1 macrophages (LDL [6])	also measured
CC(C)c1c(C(=O)Nc2ccc(O)cc2)c(-c2ccccc2)c(-c2ccc(F)cc2)n1CC[C@@H](O)C[C@@H](O)CC(=O)O [para-hydroxy metabolite, para-hydroxy atorvastatin]	60	284±13	34	624±38	27%	33 ± 3	28%	inhibited	46	16%	1819±228	about 50%	4.5 ± 0.3	65 ± 9	37%	1088±310		inhibition of lipid peroxidation in membrane vesicles ([5]; 10.0 μM compound): 80%; comparative antioxidant potency versus Vitamin E and probucol ([5]; FIG. 12): significantly more active; antioxidant activity under atherosclerotic-like conditions of elevated membrane cholesterol ([5]; FIG. 13): increased; levels of lipid peroxidation inhibited ([5]; at concentrations as low as 10.0 μM): > 10^2 μM
Cc1ccc(C)c(OCCCC(C)(C)C(=O)O)c1 [gemfibrozil, reference compound]					no effect		not gemfibrozil itself					no effect					not inhibited	lag time for the initiation of LDL oxidation (conjugated dienes formation) (LDL [1]; gemfibrozil experiment, LDL alone 60±9): 60 ± 9 min; Paraoxonase Specific Activity ([3]; Table 2, Control 26 ± 3): 27 ± 5 nmoL/mg HDL Protein/min; CuSO4-Induced HDL Oxidation, MDA (HDL; Table 2): 8.2 ± 0.4 nmoL/mg HDL Protein; CuSO4-Induced HDL Oxidation, Peroxides (HDL; Table 2): 134 ± 13 nmoL/mg HDL Protein
CC(C)c1c(C(=O)Nc2ccccc2O)c(-c2ccccc2)c(-c2ccc(F)cc2)n1CC[C@@H](O)C[C@@H](O)CC(=O)O [ortho-hydroxy metabolite, ortho-hydroxy atorvastatin]	73	192±15	44	554±32	54%	40 ± 4	37%	inhibited	50	43%	1228±210	completely inhibited	0.2 ± 0.1	9 ± 1	79%	242±22		inhibitory effect on copper ion-induced LDL oxidation (TBARS) (LDL [1]; metabolite I of gemfibrozil 3 μM, ortho-hydroxy metabolite of atorvastatin 4 μM, alone or in combination, 10 μM CuSO4, 4 hours): 43%; lipoprotein electrophoretic migration of oxidized VLDL (VLDL [10]): reduce lipoprotein electrophoretic migration
CC(C)c1c(C(=O)Nc2ccccc2)c(-c2ccccc2)c(-c2ccc(F)cc2)n1CC[C@@H](O)C[C@@H](O)CC(=O)O [atorvastatin, reference compound]						29 ± 4	not by atorvastatin			no effect			9.6 ± 0.5	122 ± 15	no effect		not inhibited	
vitamin E							95%											
